# Source: patent US20260355171A1, “INHIBITORS AND USES THEREFOR” (priority 2022, published 2026)
# Read-outs that look alike come from different tables or passages of the source.
# Legend:
# [1] = tested on: PHP.B hSyn-NSP5-V5 adeno-associated virus; experiment: Rota-rod motor testing; assay type: in vivo, mouse; conditions: 10 mg/kg daily, three-day testing, 15-17 days post AAV, vs Paxlovid
# Protocol: In vivo testing was performed on 5-month-old female C57BL/6 wildtype mice injected intravenously with PHP.B hSyn-NSP5-V5 adeno-associated virus (AAV) and treated daily with compound 22 (10 mg/kg), Paxlovid (nirmatrelvir/ritonavir) (10 mg/kg nirmatrelvir: 3.33 mg/kg ritonavir) or a vehicle control (n=10 per group).
# Motor testing was performed on the Rota-rod five times daily over a three-day testing period as previously described (refer to Ke et al. (2015) Acta Neuropathol, 130: 661-678). Motor coordination was also assessed using the hanging wire test at 14 and 22 days post injection with the AAV, which assessed the time hanging upside down on a wire grid (refer to Chan et al. (2020) Am J Path, 190(8): 1713-1722). Anxiety, disinhibition and exploratory behaviour was assessed using the elevated plus maze (EPM) test as previously described (refer to Ke et al. (2015) Acta Neuropathol, 130: 661-678).
# primary neurons [2] = experiment: Neuronal cell death in the presence of staurosporine; assay type: cell-based, mouse; conditions: 1 or 10 μM compound, 5 μM staurosporine
# Protocol: (§1) Primary neurons were treated with 0.4, 1, 2, 10 or 50 μM of compound 2 or compound 22 (prepared according to Example 2). NSP5 was added to primary neurons at DIV11, and compound 2 or 22 was added 48 hours later. Cells were treated with propidium iodide 48 hours after compound addition. Cells were washed with PBS and fixed with 4% PFA. Cells were then washed and stained with DAPI. Images of cells were taken with ZEISS Axioscan 7 microscope slide scanner. Cell death was determined by Image J analysis, counting the death cell (red, PI)) vs all cells (blue, DAPI).
# (§2) One hour after compound addition (1 or 10 μM of compound 2 or compound 22) neurons were treated with a cytotoxic agent (100 μM N-methyl-D-aspartate (NMDA), 100 μM H2O2 or 5 μM staurosporine). One hour after treatment with the cytotoxic agent, the media was replaced with fresh media and the neurons were incubated for 24 hours. A final concentration of 1 μM propidium iodide (PI) was added into the well and incubated for 5 mins. Cells were washed with phosphate-buffered saline (PBS) and then fixed with 4% PFA. Cells were then washed and stained with DAPI, and cell death determined as described above.
# [3] = Mouse pharmacokinetics, IV administration; assay type: in vivo
# Protocol: Pharmacokinetic parameters of compound 22 (prepared in accordance with Example 2) were determined following intravenous (IV, 3 mg/kg) and intraperitoneal (IP, 10 mg/kg) administration to male C57BL/6 mice.
# IV and IP formulations were prepared separately by dissolving solid compound 22 in dimethyl sulfoxide (DMSO) prior to addition of 50 mM phosphate buffered saline (pH 6.5) using vortexing and sonication to produce a colourless solution, and giving a final DMSO concentration of 5% (v/v) for each formulation. The IV formulation was filtered through a 0.22 μm syringe filter prior to dosing, whereas the IP formulation was not filtered.
# The pharmacokinetics of compound 22 was studied in non-fasted male C57BL/6 mice weighing 21.1-26.5 g. Mice had access to food and water ad libitum throughout the pre- and post-dose sampling period.
# Compound 22 was dosed to mice by bolus injection into the lateral tail vein (2 mL/kg) for IV administration and by injection into the IP cavity (5 mL/kg) for IP administration. After dosing, blood samples were collected up to 24 h (n=3 mice per time point) with a maximum of three samples from each mouse via submandibular bleed (approximately 120 μL). No urine samples were collected as mice were housed in bedded cages. Blood was collected into polypropylene Eppendorf tubes containing heparin as anticoagulant. Once collected, blood samples were centrifuged immediately, supernatant plasma was removed, and stored at −80 °C until analysis by liquid chromatography-mass spectrometry (LC-MS). A summary of the bioanalytical method is included in Table 5.
# Concentrations of test compound in plasma and tissue samples were determined using a liquid chromatography with tandem mass spectrometry (LCMS/MS) method validated for linearity, accuracy, precision, matrix factor and recovery (refer to Table 5).
# Plasma: The plasma calibration curve was prepared by spiking aliquots of blank mouse plasma (25 μL) with test compound standard solutions (5 μL) and internal standard solution (5 μL of diazepam, 5 μg/mL in 50% acetonitrile in water). Test plasma samples (25 μL) were thawed, mixed and then spiked with internal standard solution (5 μL). Plasma protein precipitation was performed by addition of acetonitrile (3-fold volume ratio) and thorough vortex mixing. Samples were centrifuged (RCF=9391×g) for 3 minutes and the supernatant (100 μL) was collected for analysis. The analysis of blood/plasma (B/P) partitioning samples was conducted similarly as for the plasma samples, using protein precipitation with acetonitrile as described above.
# The plasma concentration versus time profile was defined by the average plasma concentration at each sample time, and PK parameters were calculated using non-compartmental methods (PKSolver Version 2.0). Standard calculations for each pharmacokinetic parameter are listed below.
# primary neurons [4] = experiment: Neuronal cell death in the presence of NMDA; assay type: cell-based, mouse; conditions: 1 or 10 μM compound, 100 μM NMDA
# Protocol: as §1, §2
structure (smiles),measurement,setting,value
NC(=O)C1CCN(c2ncccc2CNCc2cccc3[nH]ccc23)CC1 [Compound 22],Rota-rod average time of five daily trials,[1],performed significantly better than Paxlovid-treated mice
same,Rota-rod maximum time of five daily trials,[1],performed significantly better than Paxlovid-treated mice
same,Protection from staurosporine-induced neurotoxicity,primary neurons [2],did not protect
same,Apparent blood volume of distribution,[3]; IV 3 mg/kg,high
same,Blood clearance,[3]; IV 3 mg/kg,moderate
same,Duration of measurable plasma concentrations,[3]; IV 3 mg/kg,24 h
same,In vivo blood clearance relative to nominal hepatic blood flow,"[3]; IV 3 mg/kg, mouse",~ 50%
same,In vivo hepatic extraction ratio,"[3]; IV 3 mg/kg, assuming predominantly hepatic clearance",moderate
same,clearance,"[3]; mouse, blood, IV 3 mg/kg, extrapolation to infinity, approximation only, read-out: Blood CL",60.6 mL/min/kg
same,Vd,"[3]; mouse, blood, IV 3 mg/kg, extrapolation to infinity, approximation only, read-out: Blood VSS",16.6 L/kg
same,half-life,"[3]; mouse, plasma, iv, 3 mg/kg, male C57BL/6 mice, terminal phase not clearly defined, approximation only, read-out: Apparent t1/2 (converted)",~14 h
same,AUC(0-t),"[3]; mouse, plasma, IV 3 mg/kg, male C57BL/6 mice, read-out: Plasma AUC0-last",1.51 µM·h
same,AUC(0-inf),"[3]; mouse, plasma, IV 3 mg/kg, extrapolation to infinity, approximation only, read-out: Plasma AUC0-inf",1.62 µM·h
same,clearance,"[3]; mouse, plasma, IV 3 mg/kg, extrapolation to infinity, approximation only, read-out: Plasma CL",84.9 mL/min/kg
same,Vd,"[3]; mouse, plasma, IV 3 mg/kg, extrapolation to infinity, approximation only, read-out: Plasma VSS",23.3 L/kg
same,Protection from NMDA-induced neurotoxicity,primary neurons [4],did not protect
